Test results published in patent US5968910A, “Compositions containing two or three inhibitors of different HIV reverse transcriptases” (priority 1994, dated 1999).
≈ marks a conversion by molar mass, not a printed value. Read-outs that look alike come from different tables or passages of the source.

How the values were obtained:
Assay type in all cases: cell-based
[1] = system: HIV-1/TIBO R82150 (100-Ile); experiment: Sensitivity of mutant HIV-1 strain in CEM cell cultures; details: Human immunodeficiency virus 1, CCRF-CEM; CEM cells, Table 1; read-out: 50% Effective Concentration
How it was run: (§1)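 CEM cells at 250,000 cells/ml were infected with HIV-1 at 100 CCID50 per ml, then mixed with serial dilutions of test compound. After 4 days at 37° C., cultures were scored for syncytium formation.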

[2] = system: HIV-1/V(0.1) 101-Ile + 141-Glu; experiment: as above; details: Human immunodeficiency virus 1, CCRF-CEM; Table 5; read-out: EC50
How it was run: as §1

HIV-1/I(0.1) 103-Asn = experiment: as above; details: Human immunodeficiency virus 1, CCRF-CEM; Table 5; read-out: EC50
How it was run: as §1

HIV-1/IV(0.1) 103-Thr = experiment: as above; details: Human immunodeficiency virus 1, CCRF-CEM; Table 5; read-out: EC50
How it was run: as §1

HIV-1/Pyr (181-Cys) = experiment: as above; details: Human immunodeficiency virus 1, CCRF-CEM; CEM cells, Table 1; read-out: 50% Effective Concentration
How it was run: as §1

HIV-1/Nev (106-Ala) = experiment: as above; details: Human immunodeficiency virus 1, CCRF-CEM; CEM cells, Table 1; read-out: 50% Effective Concentration
How it was run: as §1

HIV-1/V(0.5) 103-Asn = experiment: as above; details: Human immunodeficiency virus 1, CCRF-CEM; Table 5; read-out: EC50
How it was run: as §1

HIV-1/II(0.1) 100-Ile = experiment: as above; details: Human immunodeficiency virus 1, CCRF-CEM; Table 5; read-out: EC50
How it was run: as §1

HIV-1/III(0.1) 103-Asn = experiment: as above; details: Human immunodeficiency virus 1, CCRF-CEM; Table 5; read-out: EC50
How it was run: as §1

[3] = system: HIV-1/TSAO-m^3 T (138-Lys); experiment: as above; details: Human immunodeficiency virus 1, CCRF-CEM; CEM cells, Table 1; read-out: 50% Effective Concentration
How it was run: as §1

[4] = system: HIV-1/TIBO R82913 (103-Asn); experiment: as above; details: Human immunodeficiency virus 1, CCRF-CEM; CEM cells, Table 1; read-out: 50% Effective Concentration
How it was run: as §1

HIV-1(IIIB) (WT) = experiment: microbe, parasite or virus in culture; details: Human immunodeficiency virus 1, IIIB, CCRF-CEM
How it was run: as §1

HIV-1(IIIB) = experiment: Knock-out concentrations: breakthrough of HIV-1(IIIB)-induced cytopathicity in CEM cell cultures; details: for activity at 0.1 µg/mL / activity at 0.5 µg/mL / activity at 2.5 µg/mL: Human immunodeficiency virus 1, IIIB, CCRF-CEM, read-out: HIV-1-induced cytopathicity in cell culture; for activity at 0.1 µg/mL: 0.1 μg/ml; for activity at 0.5 µg/mL: 0.5 μg/ml; for activity at 2.5 µg/mL: 2.5 μg/ml
How it was run: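 CEM cells in RPMI 1640 with 10% FBS infected with HIV-1(IIIB) at ~1000× CCID50, subcultured every 3–4 days into fresh uninfected cells with drug held constant for 10 subcultivations (35 days), then ≥5 drug-free passages. Breakthrough scored by syncytium formation. Combinations used the two lowest single-drug starting concentrations.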

[5] = 936 h, day 39 post infection, compound absent from day 35
[6] = 1008 h, day 42 post infection, compound absent from day 35
[7] = 1104 h, day 46 post infection, compound absent from day 35
[8] = 1176 h, day 49 post infection, compound absent from day 35
[9] = 1272 h, day 53 post infection, compound absent from day 35

Structure (SMILES): Cc1occc1C(=S)Nc1ccc(Cl)c(C(=O)OCC(C)C)c1 [Compound II]
- EC50 [1]: 0.19 µg/mL (≈ 0.54 µM)
- EC50 [2]: 0.06 µg/mL (≈ 0.171 µM)
- EC50 (HIV-1/I(0.1) 103-Asn): 0.15 µg/mL (≈ 0.426 µM)
- EC50 (HIV-1/IV(0.1) 103-Thr): 0.4 µg/mL (≈ 1.14 µM)
- EC50 (HIV-1/Pyr (181-Cys)): 0.07 µg/mL (≈ 0.199 µM)
- EC50 (HIV-1/Nev (106-Ala)): 0.075 µg/mL (≈ 0.213 µM)
- EC50 (HIV-1/V(0.5) 103-Asn): 0.8 µg/mL (≈ 2.27 µM)
- EC50 (HIV-1/II(0.1) 100-Ile): 0.5 µg/mL (≈ 1.42 µM)
- EC50 (HIV-1/III(0.1) 103-Asn): 0.16 µg/mL (≈ 0.455 µM)
- EC50 [3]: 0.06 µg/mL (≈ 0.171 µM)
- EC50 [4]: 0.45 µg/mL (≈ 1.28 µM)
- EC50 (HIV-1(IIIB) (WT); CEM cells, Table 1, read-out: 50% Effective Concentration): 0.01 µg/mL (≈ 0.0284 µM)
- EC50 (HIV-1(IIIB) (WT); HIV-1 (III8), Table 5, read-out: EC50): 0.007 µg/mL (≈ 0.0199 µM)
- IC50 (HIV-1(IIIB) (WT); range stated for Compounds I-V together, read-out: 50% inhibitory concentration, HIV-1(IIIB) replication in CEM cells): 0.004 to 0.05 µg/mL (≈ 0.0114 to 0.142 µM)
- prevention of virus breakthrough, fold more efficient than BHAP (HIV-1(IIIB)): at least 5 fold
- prevention of virus breakthrough, fold more efficient than nevirapine (HIV-1(IIIB)): ≥ 25 fold
- activity at 0.1 µg/mL (HIV-1(IIIB); 96 h, day 4 post infection): 0%
- activity at 0.5 µg/mL (HIV-1(IIIB); 96 h, day 4 post infection): 0%
- activity at 2.5 µg/mL (HIV-1(IIIB); 96 h, day 4 post infection): 0%
- activity at 0.1 µg/mL (HIV-1(IIIB); 192 h, day 8 post infection): 0%
- activity at 0.5 µg/mL (HIV-1(IIIB); 192 h, day 8 post infection): 0%
- activity at 2.5 µg/mL (HIV-1(IIIB); 192 h, day 8 post infection): 0%
- activity at 0.1 µg/mL (HIV-1(IIIB); 264 h, day 11 post infection): 0%
- activity at 0.5 µg/mL (HIV-1(IIIB); 264 h, day 11 post infection): 0%
- activity at 2.5 µg/mL (HIV-1(IIIB); 264 h, day 11 post infection): 0%
- activity at 0.1 µg/mL (HIV-1(IIIB); 336 h, day 14 post infection): 12.5%
- activity at 0.5 µg/mL (HIV-1(IIIB); 336 h, day 14 post infection): 0%
- activity at 2.5 µg/mL (HIV-1(IIIB); 336 h, day 14 post infection): 0%
- activity at 0.1 µg/mL (HIV-1(IIIB); 408 h, day 17 post infection): 50%
- activity at 0.5 µg/mL (HIV-1(IIIB); 408 h, day 17 post infection): 0%
- activity at 2.5 µg/mL (HIV-1(IIIB); 408 h, day 17 post infection): 0%
- activity at 0.1 µg/mL (HIV-1(IIIB); 504 h, day 21 post infection): 100%
- activity at 0.5 µg/mL (HIV-1(IIIB); 504 h, day 21 post infection): 0%
- activity at 2.5 µg/mL (HIV-1(IIIB); 504 h, day 21 post infection): 0%
- activity at 0.1 µg/mL (HIV-1(IIIB); 600 h, day 25 post infection): 100%
- activity at 0.5 µg/mL (HIV-1(IIIB); 600 h, day 25 post infection): 0%
- activity at 2.5 µg/mL (HIV-1(IIIB); 600 h, day 25 post infection): 0%
- activity at 0.1 µg/mL (HIV-1(IIIB); 672 h, day 28 post infection): 100%
- activity at 0.5 µg/mL (HIV-1(IIIB); 672 h, day 28 post infection): 0%
- activity at 2.5 µg/mL (HIV-1(IIIB); 672 h, day 28 post infection): 0%
- activity at 0.1 µg/mL (HIV-1(IIIB); 768 h, day 32 post infection): 100%
- activity at 0.5 µg/mL (HIV-1(IIIB); 768 h, day 32 post infection): 0%
- activity at 2.5 µg/mL (HIV-1(IIIB); 768 h, day 32 post infection): 0%
- activity at 0.1 µg/mL (HIV-1(IIIB); 840 h, day 35 post infection): 100%
- activity at 0.5 µg/mL (HIV-1(IIIB); 840 h, day 35 post infection): 0%
- activity at 2.5 µg/mL (HIV-1(IIIB); 840 h, day 35 post infection): 0%
- activity at 0.1 µg/mL (HIV-1(IIIB); [5]): 100%
- activity at 0.5 µg/mL (HIV-1(IIIB); [5]): 0%
- activity at 2.5 µg/mL (HIV-1(IIIB); [5]): 0%
- activity at 0.1 µg/mL (HIV-1(IIIB); [6]): 100%
- activity at 0.5 µg/mL (HIV-1(IIIB); [6]): 0%
- activity at 2.5 µg/mL (HIV-1(IIIB); [6]): 0%
- activity at 0.1 µg/mL (HIV-1(IIIB); [7]): 100%
- activity at 0.5 µg/mL (HIV-1(IIIB); [7]): 0%
- activity at 2.5 µg/mL (HIV-1(IIIB); [7]): 0%
- activity at 0.1 µg/mL (HIV-1(IIIB); [8]): 100%
- activity at 0.5 µg/mL (HIV-1(IIIB); [8]): 0%
- activity at 2.5 µg/mL (HIV-1(IIIB); [8]): 0%
- activity at 0.1 µg/mL (HIV-1(IIIB); [9]): 100%
- activity at 0.5 µg/mL (HIV-1(IIIB); [9]): 0%
- activity at 2.5 µg/mL (HIV-1(IIIB); [9]): 0%
- concentration at which virus emerged (virus breakthrough) (HIV-1(IIIB); tested at 0.1, 0.5 and 2.5 μg/ml, 35 days): 0.1 µg/mL
